ChEMBL document CHEMBL5518215, “Unlocking Antibacterial Potential: Key-Site-Based Regulation of Antibacterial Spectrum of Peptides” (J Med Chem, 2024)

Columns and labels:
Pseudomonas aeruginosa [1] = assay: Antimicrobial activity against Pseudomonas aeruginosa 27853 assessed as absence bacterial growth measured after 18 to 24 hrs incubation by NCCLS method; assay type: functional; conditions: time 18-24 hrs
Bacillus cereus [2] = assay: Antimicrobial activity against Bacillus cereus 1.932 assessed as absence bacterial growth measured after 18 to 24 hrs incubation by NCCLS method; assay type: functional; conditions: time 18-24 hrs
Salmonella typhimurium [3] = assay: Antimicrobial activity against Salmonella typhimurium C7731 assessed as absence bacterial growth measured after 18 to 24 hrs incubation by NCCLS method; assay type: functional, Salmonella enterica subsp. enterica serovar Typhimurium; conditions: Salmonella enterica, time 18-24 hrs
Escherichia coli [4] = assay: Antimicrobial activity against Escherichia coli 25922 assessed as absence bacterial growth measured after 18 to 24 hrs incubation in presence of 50% serum by NCCLS method; assay type: functional; conditions: time 18-24 hrs
Acinetobacter baumannii [5] = assay: Antimicrobial activity against Acinetobacter baumannii 1.6769 assessed as bacterial killing measured after 16 hrs incubation; assay type: functional
Escherichia coli [6] = assay: Antimicrobial activity against Escherichia coli 25922 assessed as absence bacterial growth measured after 18 to 24 hrs incubation in presence of 12.5% serum by NCCLS method; assay type: functional; conditions: time 18-24 hrs
Escherichia coli [7] = assay: Antimicrobial activity against Escherichia coli 25922 assessed as absence bacterial growth measured after 18 to 24 hrs incubation in presence of MgCl2 by NCCLS method; assay type: functional; conditions: time 18-24 hrs
Salmonella typhimurium [8] = assay: Antimicrobial activity against Salmonella typhimurium 14028 assessed as bacterial killing measured after 16 hrs incubation; assay type: functional, Salmonella enterica subsp. enterica serovar Typhimurium; conditions: Salmonella enterica
Escherichia coli [9] = assay: Antimicrobial activity against Escherichia coli K88 assessed as absence bacterial growth measured after 18 to 24 hrs incubation by NCCLS method; assay type: functional; conditions: time 18-24 hrs
Escherichia coli [10] = assay: Antimicrobial activity against Escherichia coli 25922 assessed as absence bacterial growth measured after 18 to 24 hrs incubation in presence of NH4Cl by NCCLS method; assay type: functional; conditions: time 18-24 hrs
Enterococcus faecalis [11] = assay: Antimicrobial activity against Enterococcus faecalis 29212 assessed as bacterial killing measured after 16 hrs incubation; assay type: functional
[12] = test system: Staphylococcus epidermidis; assay: Antimicrobial activity against Staphylococcus epidermidis 12228 assessed as bacterial killing measured after 16 hrs incubation; assay type: functional
Acinetobacter baumannii [13] = assay: Antimicrobial activity against Acinetobacter baumannii 1.6769 assessed as absence bacterial growth measured after 18 to 24 hrs incubation by NCCLS method; assay type: functional; conditions: time 18-24 hrs
Staphylococcus aureus [14] = assay: Antimicrobial activity against Methicillin-resistant Staphylococcus aureus 43300 assessed as absence bacterial growth measured after 18 to 24 hrs incubation by NCCLS method; assay type: functional; conditions: time 18-24 hrs
Listeria monocytogenes [15] = assay: Antimicrobial activity against Listeria monocytogenes 1.10753 assessed as absence bacterial growth measured after 18 to 24 hrs incubation by NCCLS method; assay type: functional; conditions: time 18-24 hrs
Erythrocyte = assay: Hemolytic activity in human RBC at effective concentration measured after 1 hr by microplate reader analysis; assay type: toxicity, cell-based
[16] = Antimicrobial activity against Salmonella pullorum C7913 assessed as bacterial killing measured after 16 hrs incubation; assay type: functional, Salmonella enterica subsp. enterica serovar Pullorum; conditions: Salmonella enterica
Enterococcus faecalis [17] = assay: Antimicrobial activity against Enterococcus faecalis 29212 assessed as absence bacterial growth measured after 18 to 24 hrs incubation by NCCLS method; assay type: functional; conditions: time 18-24 hrs
Staphylococcus aureus [18] = assay: Antimicrobial activity against Methicillin-resistant Staphylococcus aureus 43300 assessed as bacterial killing measured after 16 hrs incubation; assay type: functional
Escherichia coli [19] = assay: Antimicrobial activity against Escherichia coli 25922 assessed as bacterial killing measured after 16 hrs incubation; assay type: functional
Escherichia coli [20] = assay: Antimicrobial activity against Escherichia coli 25922 assessed as absence bacterial growth measured after 18 to 24 hrs incubation in presence of FeCl3 by NCCLS method; assay type: functional; conditions: time 18-24 hrs
Escherichia coli [21] = assay: Antimicrobial activity against Escherichia coli 25922 assessed as absence bacterial growth measured after 18 to 24 hrs incubation by NCCLS method; assay type: functional; conditions: time 18-24 hrs
Staphylococcus aureus [22] = assay: Antimicrobial activity against Staphylococcus aureus 29213 assessed as absence bacterial growth measured after 18 to 24 hrs incubation by NCCLS method; assay type: functional; conditions: time 18-24 hrs
Salmonella typhimurium [23] = assay: Antimicrobial activity against Salmonella typhimurium C7731 assessed as bacterial killing measured after 16 hrs incubation; assay type: functional, Salmonella enterica subsp. enterica serovar Typhimurium; conditions: Salmonella enterica
[24] = Cytotoxicity against mouse RAW264.7 cells assessed as cell survival rate measured after 8 hrs by MTT assay; assay type: toxicity, cell-based
Listeria monocytogenes [25] = assay: Antimicrobial activity against Listeria monocytogenes 1.10753 assessed as bacterial killing measured after 16 hrs incubation; assay type: functional
Staphylococcus aureus [26] = assay: Antimicrobial activity against Staphylococcus aureus 25923 assessed as bacterial killing measured after 16 hrs incubation; assay type: functional
Escherichia coli [27] = assay: Antimicrobial activity against Escherichia coli K88 assessed as bacterial killing measured after 16 hrs incubation; assay type: functional
Bacillus cereus [28] = assay: Antimicrobial activity against Bacillus cereus 1.932 assessed as bacterial killing measured after 16 hrs incubation; assay type: functional
[29] = Cytotoxicity against porcine IPEC-J2 cells assessed as cell survival rate measured after 8 hrs by MTT assay; assay type: toxicity, cell-based, Sus scrofa; conditions: pig
Staphylococcus aureus [30] = assay: Antimicrobial activity against Staphylococcus aureus 29213 assessed as absence bacterial growth measured after 18 to 24 hrs incubation by NCCLS m; assay type: functional; conditions: time 18-24 hrs
[31] = test system: Staphylococcus epidermidis; assay: Antimicrobial activity against Staphylococcus epidermidis 12228 assessed as absence bacterial growth measured after 18 to 24 hrs incubation by NCCLS method; assay type: functional; conditions: time 18-24 hrs
Escherichia coli [32] = assay: Antimicrobial activity against Escherichia coli 25922 assessed as absence bacterial growth measured after 18 to 24 hrs incubation in presence of ZnCl2 by NCCLS method; assay type: functional; conditions: time 18-24 hrs
Escherichia coli [33] = assay: Antimicrobial activity against Escherichia coli 25922 assessed as absence bacterial growth measured after 18 to 24 hrs incubation in presence of 25% serum by NCCLS method; assay type: functional; conditions: time 18-24 hrs
[34] = Cytotoxicity against human HEK-293T cells assessed as cell survival rate measured after 8 hrs by MTT assay; assay type: toxicity, cell-based
Pseudomonas aeruginosa [35] = assay: Antimicrobial activity against Pseudomonas aeruginosa 27853 assessed as bacterial killing measured after 16 hrs incubation; assay type: functional
Escherichia coli [36] = assay: Antimicrobial activity against Escherichia coli 25922 assessed as absence bacterial growth measured after 18 to 24 hrs incubation in presence of KCl by NCCLS method; assay type: functional; conditions: time 18-24 hrs
Staphylococcus aureus [37] = assay: Antimicrobial activity against Staphylococcus aureus 29213 assessed as bacterial killing measured after 16 hrs incubation; assay type: functional
[38] = Antimicrobial activity against Salmonella pullorum C7913 assessed as absence bacterial growth measured after 18 to 24 hrs incubation by NCCLS method; assay type: functional, Salmonella enterica subsp. enterica serovar Pullorum; conditions: Salmonella enterica, time 18-24 hrs
Escherichia coli [39] = assay: Antimicrobial activity against Escherichia coli 25922 assessed as absence bacterial growth measured after 18 to 24 hrs incubation in presence of NaCl by NCCLS method; assay type: functional; conditions: time 18-24 hrs
Salmonella typhimurium [40] = assay: Antimicrobial activity against Salmonella typhimurium 14028 assessed as absence bacterial growth measured after 18 to 24 hrs incubation by NCCLS method; assay type: functional, Salmonella enterica subsp. enterica serovar Typhimurium; conditions: Salmonella enterica, time 18-24 hrs

H-GKLWLKGLKLWLKGGKLWLKG-NH2
MIC (Pseudomonas aeruginosa [1]): 4 µM | MIC (Bacillus cereus [2]): 4 µM | MIC (Salmonella typhimurium [3]): 4 µM | MIC (Escherichia coli [4]): > 32 µM | MBC (Acinetobacter baumannii [5]): 2 µM | MIC (Escherichia coli [6]): 16 µM | MIC (Escherichia coli [7]): 4 µM | MBC (Salmonella typhimurium [8]): 1 µM | MIC (Escherichia coli [9]): 1 µM | MIC (Escherichia coli [10]): 2 µM | MBC (Enterococcus faecalis [11]): 4 µM | MBC [12]: 4 µM | MIC (Acinetobacter baumannii [13]): 2 µM | MIC (Staphylococcus aureus [14]): 2 µM | MIC (Listeria monocytogenes [15]): > 32 µM | HC10 (Erythrocyte): 64 µM | MBC [16]: 1 µM | MIC (Enterococcus faecalis [17]): 4 µM | MBC (Staphylococcus aureus [18]): 2 µM | MBC (Escherichia coli [19]): 2 µM | MIC (Escherichia coli [20]): 2 µM | MIC (Escherichia coli [21]): 2 µM | MIC (Staphylococcus aureus [22]): 4 µM | MBC (Salmonella typhimurium [23]): 16 µM | IC50 at 8 h [24]: 32.7 µM | MBC (Listeria monocytogenes [25]): > 32 µM | MBC (Staphylococcus aureus [26]): 8 µM | MBC (Escherichia coli [27]): 1 µM | MBC (Bacillus cereus [28]): 4 µM | IC50 at 8 h [29]: 21.1 µM | MIC (Staphylococcus aureus [30]): 4 µM | MIC [31]: 2 µM | MIC (Escherichia coli [32]): 2 µM | MIC (Escherichia coli [33]): > 32 µM | IC50 at 8 h [34]: 47.2 µM | MBC (Pseudomonas aeruginosa [35]): 32 µM | MIC (Escherichia coli [36]): 2 µM | MBC (Staphylococcus aureus [37]): 4 µM | MIC [38]: 1 µM | MIC (Escherichia coli [39]): 4 µM | MIC (Salmonella typhimurium [40]): 1 µM

H-GKLWLKGMKLWLKGGKLWLKG-NH2
MIC (Pseudomonas aeruginosa [1]): 4 µM | MIC (Bacillus cereus [2]): 1 µM | MIC (Salmonella typhimurium [3]): 4 µM | MIC (Escherichia coli [4]): > 32 µM | MBC (Acinetobacter baumannii [5]): 1 µM | MIC (Escherichia coli [6]): 32 µM | MIC (Escherichia coli [7]): 8 µM | MBC (Salmonella typhimurium [8]): 2 µM | MIC (Escherichia coli [9]): 1 µM | MIC (Escherichia coli [10]): 2 µM | MBC (Enterococcus faecalis [11]): 8 µM | MBC [12]: 4 µM | MIC (Acinetobacter baumannii [13]): 1 µM | MIC (Staphylococcus aureus [14]): 2 µM | MIC (Listeria monocytogenes [15]): > 32 µM | HC10 (Erythrocyte): 128 µM | MBC [16]: 1 µM | MIC (Enterococcus faecalis [17]): 4 µM | MBC (Staphylococcus aureus [18]): 2 µM | MBC (Escherichia coli [19]): 2 µM | MIC (Escherichia coli [20]): 2 µM | MIC (Escherichia coli [21]): 2 µM | MIC (Staphylococcus aureus [22]): 4 µM | MBC (Salmonella typhimurium [23]): 8 µM | IC50 at 8 h [24]: > 64 µM | MBC (Listeria monocytogenes [25]): > 32 µM | MBC (Staphylococcus aureus [26]): 16 µM | MBC (Escherichia coli [27]): 1 µM | MBC (Bacillus cereus [28]): 2 µM | IC50 at 8 h [29]: 21 µM | MIC (Staphylococcus aureus [30]): 4 µM | MIC [31]: 4 µM | MIC (Escherichia coli [32]): 2 µM | MIC (Escherichia coli [33]): > 32 µM | IC50 at 8 h [34]: > 64 µM | MBC (Pseudomonas aeruginosa [35]): 8 µM | MIC (Escherichia coli [36]): 2 µM | MBC (Staphylococcus aureus [37]): 4 µM | MIC [38]: 1 µM | MIC (Escherichia coli [39]): 8 µM | MIC (Salmonella typhimurium [40]): 2 µM
